Where two headings read alike, the source gives them in different places.
Tests used:
[1] = target: NDM-1 (Klebsiella pneumoniae, UniProt C7C422); assay: Enzyme activity: determination of IC50, fluorescence assay with CCF2-FA substrate; type: biochemical; conditions: CCF2-FA 1.25 μM, 2 hours at 25° C.
In short: (§1)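 In pH 7 phosphate buffer (100 mM) with 10 μM ZnSO4 and 0.005% Tween-20, CCF2-FA substrate (1.25 μM final) was hydrolysed for 2 h at 25 °C by NDM-1, IMP-1 or VIM-1 at 1, 2 or 30 pM in the presence of inhibitor at 20–0.00063 μM. Emission 460 nm/excitation 405 nm; 4-parameter curve fit gave IC50.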

[2] = target: IMP-1 (Serratia marcescens, UniProt P52699); assay: as above; type: biochemical; conditions: CCF2-FA 1.25 μM, 2 hours at 25° C., read-out: IMP1 IC50
Sequence of IMP-1 (P52699 19-246, looked up, species assumed): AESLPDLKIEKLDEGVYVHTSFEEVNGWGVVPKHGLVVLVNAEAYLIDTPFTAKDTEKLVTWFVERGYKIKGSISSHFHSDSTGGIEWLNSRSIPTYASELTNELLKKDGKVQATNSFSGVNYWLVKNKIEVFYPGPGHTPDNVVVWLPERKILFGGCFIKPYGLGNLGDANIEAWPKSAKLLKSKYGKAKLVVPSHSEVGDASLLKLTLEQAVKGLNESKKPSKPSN
In short: as §1

[3] = target: VIM-1 (Pseudomonas aeruginosa, UniProt A0A0F7KYQ8); assay: as above; type: biochemical; conditions: CCF2-FA 1.25 μM, 2 hours at 25° C., read-out: VIM1 IC50
In short: as §1

[4] = test system: Escherichia coli expressing NDM-1 (CLB30016); assay: Antibiotic potentiation activity: synergistic concentration (MITC95) with imipenem, growth by OD600; type: cell-based
In short: (§2)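 MITC95 = lowest inhibitor concentration giving 95% growth inhibition, read by absorbance after 22–24 h at 35° C. Compound range 200 μM to 0.195 μM, imipenem fixed at 1 or 4 μg/ml, bacteria in 1.1×CAMHB from saline suspension diluted 1:100.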

[5] = test system: Serratia marcescens expressing IMP-1 (CL5741); assay: as above; type: cell-based
In short: as §2

[6] = test system: Klebsiella pneumoniae expressing VIM-1 (IHMA599644); assay: as above; type: cell-based
In short: as §2

[7] = NDM-1 enzyme 1 pM, read-out: NDM1 IC50
[8] = E. coli CLB30016 (NDM-1), 95% inhibition of growth
[9] = S. marcescens CL5741 (IMP-1), 95% inhibition of growth
[10] = K. pneumoniae IHMA599644 (VIM-1), 95% inhibition of growth
[11] = enzyme 1 pM, read-out: NDM1 IC50
[12] = 95% inhibition of bacterial growth, strain CLB30016
[13] = 95% inhibition of bacterial growth, strain CL5741
[14] = 95% inhibition of bacterial growth, strain IHMA599644

Sequence of NDM-1 (C7C422 29-270, looked up, species assumed): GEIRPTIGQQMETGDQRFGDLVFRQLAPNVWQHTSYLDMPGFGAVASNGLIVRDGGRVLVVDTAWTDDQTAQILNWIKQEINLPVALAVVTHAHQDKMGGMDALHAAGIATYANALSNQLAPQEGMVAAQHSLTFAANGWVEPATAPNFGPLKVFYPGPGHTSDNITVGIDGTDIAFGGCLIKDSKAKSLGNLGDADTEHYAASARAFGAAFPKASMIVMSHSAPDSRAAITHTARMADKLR

| SMILES | IC50 [1, 7] [nM] | IC50 ([2]; IMP-1 enzyme 2 pM) [nM] | IC50 ([3]; VIM-1 enzyme 30 pM) [nM] | NDM1 EC30016 MITC95 [4, 8] [µM] | IMP1 SM5741 MITC95 [5, 9] [µM] | VIM1 KP599644 MITC95 [6, 10] [µM] | IC50 [1, 11] [nM] | IC50 ([2]; enzyme 2 pM) [nM] | IC50 ([3]; enzyme 30 pM) [nM] | NDM1 EC30016 MITC95 [4, 12] [µM] | IMP1 SM5741 MITC95 [5, 13] [µM] | VIM1 KP599644 MITC95 [6, 14] [µM] | IC50 ([1]; NDM1 IC50, NDM-1 enzyme 1 pM) [nM] |
| --- | --- | --- | --- | --- | --- | --- | --- | --- | --- | --- | --- | --- | --- |
| CCC[C@H](C(=O)O)[C@H](Cc1ccc(C2CCNC2)nc1)c1nnn[nH]1 (stereo partly drawn) [Example 409, (2S)-2-((1S)-2-(6-(pyrrolidin-3-yl)pyridin-3-yl)-1-(1H-tetrazol-5-yl)ethyl)pentanoic acid] | 810 | 19800 | 14 | 12.5 | 200 | 25 |  |  |  |  |  |  |  |
| CCC[C@H](C(=O)O)[C@H](Cc1cccc(-c2ccnc(N)c2)c1)c1nn[nH]n1 [Example 349, (2S)-2-[(1S)-2-[3-(2-aminopyridin-4-yl)phenyl]-1-(2H-tetrazol-5-yl)ethyl]pentanoic acid] | 11 | 140 | 1.3 | 9.4 | 3.9 | 12.5 |  |  |  |  |  |  |  |
| CCC[C@H](C(=O)O)[C@H](Cc1ccc(NC)cn1)c1nnn[nH]1 [Example 151] |  |  |  |  |  |  | 300 | 7900 | 120 | 0.39 | 100 | 12.5 |  |
| CC(C)C[C@H](C(=O)O)[C@H](Cc1ccc(C2=CCC(N)CC2)c(F)c1)c1nn[nH]n1 (stereo partly drawn) [Example 455, 4′-((2S,3S)-3-carboxy-5-methyl-2-(2H-tetrazol-5-yl)hexyl)-2′-fluoro-2,3,4,5-tetrahydro-[1,1′-biphenyl]-4-aminium 2,2,2-trifluoroacetate] | 23.4 | 23.9 | 3.38 | 4.688 | 3.125 | 18.75 |  |  |  |  |  |  |  |
| CCC[C@H](C(=O)O)[C@H](Cc1ccc(Br)s1)c1nnn[nH]1 [Example 425, (S)-2-((S)-2-(5-bromothiophen-2-yl)-1-(1H-tetrazol-5-yl)ethyl)pentanoic acid] | 105 | 282 | 3.63 | 12.5 | 25 | 12.5 |  |  |  |  |  |  |  |
| CC(C)C[C@H](C(=O)O)[C@H](Cc1ccc(C2=CCCNC2)c(F)c1)c1nn[nH]n1 [Example 450, 5-(4-((2S,3S)-3-carboxy-5-methyl-2-(2H-tetrazol-5-yl)hexyl)-2-fluorophenyl)-1,2,3,6-tetrahydropyridin-1-ium 2,2,2-trifluoroacetate] | 88.9 | 138 | 2.18 | 7.813 | 6.25 | 18.75 |  |  |  |  |  |  |  |
| CCC[C@H](C(=O)O)[C@H](CCc1ccccc1)c1nnn[nH]1 [Example 266, (2S,3S)-5-phenyl-2-propyl-3-(1H-tetrazol-5-yl)pentanoic acid] | 190 | 1000 | 20 | 12.5 | 38 | 25 |  |  |  |  |  |  |  |
| CC(C)[C@H](C(=O)O)[C@H](Cc1cccc(Br)n1)c1nnn[nH]1 [Example 92] |  |  |  |  |  |  | 110 | 5500 | 28 | 9.4 | 100 | 25 |  |
| CC(C)C[C@H](C(=O)O)[C@H](Cc1ccc(N2CC(N3CCN(C)CC3)C2)nc1)c1nnn[nH]1 [Example 332, (2S)-4-methyl-2-[(1S)-2-{6-[3-(4-methylpiperazin-1-yl)azetidin-1-yl]pyridin-3-yl}-1-(1H-tetrazol-5-yl)ethyl]pentanoic acid] | 160 | 540 | 24 | 4.7 | 12.5 | 50 |  |  |  |  |  |  |  |
| Nc1ccc(C[C@H](c2nnn[nH]2)[C@@H](C(=O)O)C2CCCC2)cn1 [Example 122, (2S,3S)-4-(6-aminopyridin-3-yl)-2-cyclopentyl-3-(1H-tetrazol-5-yl)butanoic acid] |  |  |  |  |  |  | 39 | 620 | 1.4 | 0.39 | 12.5 | 6.2 |  |
| CCC[C@H](C(=O)O)[C@H](Cc1ccc(-c2ccc3[nH]ncc3c2)cn1)c1nnn[nH]1 [Example 168, (2S)-2-[(1S)-2-[5-(1H-indazol-5-yl)pyridin-2-yl]-1-(1H-tetrazol-5-yl)ethyl]pentanoic acid] |  |  |  |  |  |  | 100 | 3000 | 53 | 25 | 200 | >200 |  |
| CCC[C@H](C(=O)O)[C@H](Cc1cnc(N)s1)c1nnn[nH]1 [Example 115, (2S)-2-[(1S)-2-(2-amino-1,3-thiazol-5-yl)-1-(1H-tetrazol-5-yl)ethyl]pentanoic acid] |  |  |  |  |  |  | 170 | 1500 | 6.5 | 0.78 | 25 | 9.4 |  |
| CC(C)[C@H](C(=O)O)[C@H](Cc1ccc(C2CCNC2)c(F)c1)c1nnn[nH]1 (stereo partly drawn) [Example 109, (2S,3S)-4-(3-fluoro-4-(pyrrolidin-3-yl)phenyl)-2-isopropyl 3-(1H-tetrazol-5-yl)butanoic acid] |  |  |  |  |  |  | 17 | 450 | 1.2 | 3.1 | 12.5 | 4.7 |  |
| CC(C)(C)[C@H](C(=O)O)[C@@H](Cc1cccc2sc(Br)nc12)c1nnn[nH]1 [Example 423, (2R,3R)-4-(2-bromobenzo[d]thiazol-4-yl)-2-(tert-butyl)-3-(1H-tetrazol-5-yl)butanoic acid] | 1.22 | 2.77 | 0.989 | 12.5 | 25 | 50 |  |  |  |  |  |  |  |
| CC(C)C[C@H](C(=O)O)[C@H](Cc1ccc(N2CCC(N)C2)nc1)c1nnn[nH]1 (stereo partly drawn) [Example 310, (2S)-2-[(1S)-2-[6-(3-aminopyrrolidin-1-yl)pyridin-3-yl]-1-(1H-tetrazol-5-yl)ethyl]-4-methylpentanoic acid] | 430 | 1800 | 4.6 | 4.7 | 25 | 12.5 |  |  |  |  |  |  |  |
| CCC[C@H](C(=O)O)[C@H](Cc1ccc(N2CCN(CCO)CC2)cc1)c1nn[nH]n1 [Example 225, (2S)-2-[(1S)-2-{4-[4-(2-hydroxyethyl)piperazin-1-yl]phenyl}-1-(2H-tetrazol-5-yl)ethyl]pentanoic acid] |  |  |  |  |  |  | 110 | 280 | 66 | 25 | 12.5 | 50 |  |
| CCC[C@H](C(=O)O)[C@H](Cc1cccc(-c2cccnc2)c1)c1nn[nH]n1 [Example 339, (2S)-2-[(1S)-2-(3-pyridin-3-ylphenyl)-1-(2H-tetrazol-5-yl)ethyl]pentanoic acid] | 3.6 | 160 | 1.4 | 18.8 | 6.2 | 38 |  |  |  |  |  |  |  |
| CC(C)C[C@H](C(=O)O)[C@H](Cc1ccc(C2=CCNCC2)c(F)c1)c1nn[nH]n1 [Example 453, 4-(4-((2S,3S)-3-carboxy-5-methyl-2-(2H-tetrazol-5-yl)hexyl)-2-fluorophenyl)-1,2,3,6-tetrahydropyridin-1-ium 2,2,2-trifluoroacetate] |  | 101 | 2.25 | 6.25 | 3.125 | 12.5 |  |  |  |  |  |  | 64.5 |
| CC(C)C[C@H](C(=O)O)[C@H](Cc1ccc(C2CCNCC2)nc1)c1nnn[nH]1 [Example 103, (S)-4-methyl-2-((S)-2-(6-(piperidin-4-yl)pyridin-3-yl)-1-(1H-tetrazol-5-yl)ethyl)pentanoic acid] |  |  |  |  |  |  | 150 | 960 | 3.4 | 6.2 | 18.8 | 18.8 |  |
| CC(C)C[C@H](C(=O)O)[C@H](Cc1ccc(-c2ccc(N)nc2)cn1)c1nn[nH]n1 [Example 172, (2S)-2-[(1S)-2-(6′-amino-3,3′-bipyridin-6-yl)-1-(2H-tetrazol-5-yl)ethyl]-4-methylpentanoic acid] |  |  |  |  |  |  | 52 | 800 | 49 | 12.5 | 38 | 50 |  |

Reference: patent US9839642B2, “Beta-tetrazolyl-propionic acids as metallo-beta-lactamase inhibitors” (priority 2014, dated 2017)
